Test results as given in EP4741383A1, “COMPOUND AND USE THEREOF AS ANTI-CANCER DRUG” (Tyligand Bioscience (Shanghai) Limited, priority 2023, dated 2025).

Key:
[1] = test system: MV4-11; test: CellTiter-Glo cell proliferation inhibition, MV4-11; assay type: cell-based, human; details: for IC50: Homo sapiens, MV4-11 cells, 72 hours, CellTiter-Glo, read-out: IC50 (µM) M V4-11
Text: (§1) In this study, the CellTiter-Glo® Luminescent Cell Viability Assay kit from Promega was used to evaluate the inhibitory effects of the disclosed compounds on the proliferation of cell lines KYSE520 (a human esophageal squamous cell carcinoma cell line dependent on SHP2 for growth), MeWo (a human malignant melanoma cell line), and MV4-11 (an RTK-mutant human acute monocytic leukemia cell line).
Using essentially the same experimental materials, MV4-11 cells (Nanjing Cobio Biotechnology Co., Ltd., Catalog #CBP60522) were treated similarly: when thawing the cells, the cryovial was rapidly shaken in a 37 °C water bath to thaw within 1 minute. The thawed cell suspension was mixed with IMDM culture medium containing 10% FBS (HyClone, Catalog #SH30228.01), centrifuged at 1000 rpm for 7 minutes, and the supernatant was discarded. The cell pellet was resuspended in 5 mL of complete culture medium (IMDM medium containing 10% FBS) placed in a cell culture flask with 25 cm^2 of bottom area, and cultured in a cell culture incubator at 37 °C, 95% humidity, and 5% CO2. Cell passaging was performed when the cell density reached approximately 10^6 cells/mL. During cell passaging, the old cell suspension was thoroughly mixed, 1/5 of the cell suspension was retained, and 4 mL of new complete culture medium was added. After thorough mixing, the cells were placed back in the cell culture incubator for further culture. Cell plating was performed when the cell density again reached approximately 10^6 cells/mL. During cell plating, following the cell passage method, 1/5 of the cell suspension was retained for continued culture, and the remaining 4/5 of the cell suspension was placed in a 15 mL centrifuge tube. Cell viability was determined using the trypan blue exclusion method to ensure that cell viability was above 90%. A cell suspension with a density of 1.11 × 10^5 viable cells/mL was prepared using complete culture medium. 90 µL of the cell suspension was added to a 96-well cell culture plate, resulting in a cell density of 10000 viable cells/well. A control group without cells and without compounds, containing only complete culture medium (i.e., culture medium control) and a control group without compounds but containing cells (i.e., cell control) were set up. The cell plate was incubated overnight in the cell culture incubator. First, a 10 mM stock solution of the compound (Example compound and positive control compound 11a-1) in DMSO was serially diluted with DMSO at a 3-fold dilution, down to the 9th concentrations. A 10th concentration containing only DMSO (without the compound) was also prepared as a control. Then, the DMSO solutions containing different concentrations of the compound were diluted 100-fold with complete culture medium, resulting in a DMSO concentration of 1% in each solution. Finally, 10 µL of each solution was added to the corresponding wells of a cell culture plate, resulting in an initial compound concentration of 10 µM, with a 3-fold dilution between adjacent concentrations, and a DMSO concentration of 0.1% in the cell culture plate. The cell plate was then incubated in a cell culture incubator for 72 hours.
(§2) For endpoint detection, CellTiter-Glo reagent (Promega, catalog number #G7573, CellTiter-Glo® Luminescent Cell Viability Assay Kit) was melt and each cell plate was moved to room temperature for equilibration for 30 minutes. 75 µL (KYSE520 cells) or 50 µL (MeWo cells and MV 4-11 cells) of CellTiter-Glo was added to each well of the corresponding cell plate. The plates were shaken on a track-mounted shaker for 2 minutes to fully lyse the cells. The cell plates were kept at room temperature for 8 minutes to stabilize the luminescence signal. A multi-mode microplate reader (PerkinEImer, Envision 2105 Multimode plate Read) was used to full-wavelength scan the luminescence value of each well. […]

[2] = test system: MeWo; test: CellTiter-Glo cell proliferation inhibition, MeWo; assay type: cell-based, human; details: for IC50: MeWo cells, CellTiter-Glo
Method: as §1
Using essentially the same experimental materials, MeWo cells (ATCC, catalog #HTB-65) were treated similarly: when thawing the cells, the cryovial was rapidly shaken in a 37 °C water bath to thaw the cells within 1 minute. The thawed cell suspension was mixed with MEM/EBSS culture medium containing 10% FBS (HyClone, catalog #SH30024.01), centrifuged at 1000 rpm for 5 minutes, and the supernatant was discarded. The cell pellet was resuspended in 5 mL of complete culture medium (MEM/EBSS medium containing 10% FBS), placed in a cell culture flask with 25 cm^2 of bottom area, and cultured in a cell culture incubator at 37 °C, 95% humidity, and 5% CO2. Cell passaging was performed when the cell confluence reached approximately 80%. During cell passaging, the old culture medium was discarded, the cells were washed once with DPBS, and 1 mL of trypsin was added to digest the cells. When the cells dispersed into single cells and detached from the bottom of the cell culture flask, 3 mL of new complete culture medium was added to stop the digestion. After thoroughly mixing the cell suspension, 1/5 of the cell suspension was retained, 5 mL of new complete culture medium was added, and after thorough mixing, the cells were placed in a cell culture flask for further culture. Cell plating was performed when the cell confluence again reached approximately 80%. During cell plating, following the cell passaging method, 1/5 of the cell suspension was retained for further culture, and the remaining 4/5 of the cell suspension was placed in a 15 mL centrifuge tube. Cell viability was determined using the trypan blue exclusion method to ensure that cell viability was above 90%. A cell suspension with a density of 2.22 × 10^4 cells/mL was prepared using MEM/EBSS culture medium containing 5% FBS. 90 µL of the cell suspension was added to a 96-well cell culture plate, resulting in a cell density of 2000 viable cells/well in the cell culture plate. A control group without cells and without compounds, containing only complete culture medium (i.e., culture medium control), and a control group without compounds but containing cells (i.e., cell control) were set up. The cell plate was cultured overnight in the cell culture incubator. First, a 10 mM stock solution of the compound (Example compound and positive control compound 11a-1) in DMSO was serially diluted with DMSO at a 3-fold dilution, down to the 9th concentration. A 10th concentration containing only DMSO (without the compound) was also prepared as a control. Then, the DMSO solutions containing different concentrations of the compound were diluted 100-fold with complete culture medium, resulting in a 1% DMSO concentration in each solution. Finally, 10 µL of each solution was added to the corresponding wells of the cell culture plate, resulting in a starting compound concentration of 10 µM, with a 3-fold dilution between adjacent concentrations, and a 0.1% DMSO concentration in the cell culture plate. The cell plates were then incubated in a cell culture incubator for 72 hours.
as §2, with “signal.” for “signal. A multi-mode microplate reader (PerkinEImer, Envision 2105 Multimode plate Read) was used to full-wavelength scan the luminescence value of each well.”

IC50 [1] | IC50 against MV4-11 cells, fold lower than 11a-1 ([1]; relative to 11a-1 (5.13 µM)) | Structure (SMILES) | IC50 ([2]; Homo sapiens, MeWo, 72 h) | IC50 ([2]; 72 hours) | IC50 against Mewo cells, fold lower than 11a-1 ([2]; relative to 11a-1 (3.10 µM))
> 10 µM |  | O=C(Nc1ccc(-c2cc3cc(F)c(-c4nnn[nH]4)cc3n2C2CCC2)cc1)C(=O)Nc1ccc(N2CCC(C3COC3)CC2)cc1 [Example 20] | 0.042 µM |  | 
0.108 µM |  | O=C(Nc1ccc(-c2cc3cc(F)c(-c4nnn[nH]4)cc3n2C2CCC2)cc1)C(=O)Nc1ccc(N2CCC(CCO)CC2)cc1 [Example 25] | 0.04 µM |  | 
> 10 µM |  | CC(C)(O)C1CCN(c2ccc(NC(=O)C(=O)Nc3ccc(-c4cc5cc(F)c(-c6nnn[nH]6)cc5n4C4CCC4)cc3)cc2)CC1 [Example 33] | 0.117 µM |  | 
0.269 µM |  | CC1(CO)CCN(c2ccc(NC(=O)C(=O)Nc3ccc(-c4cc5cc(F)c(-c6nnn[nH]6)cc5n4C4CCC4)cc3)cc2)CC1 [Example 40] | 0.073 µM |  | 
0.127 µM |  | O=C(Nc1ccc(-c2cc3cc(F)c(-c4nnn[nH]4)cc3n2C2CCC2)cc1)C(=O)Nc1ccc(N2CC3(CCOCC3)C2)cc1 [Example 57] | 0.096 µM |  | 
3.03 µM |  | O=C(Nc1ccc(-c2cc3cc(F)c(-c4nnn[nH]4)cc3n2C2CCC2)cc1)C(=O)Nc1ccc(N2CCC3(CCOC3)C2)cc1 (stereo not drawn) [Example 61] | 0.115 µM |  | 
> 10 µM |  | O=C(Nc1ccc(-c2cc3cc(F)c(-c4nnn[nH]4)cc3n2C2CCC2)cc1)C(=O)Nc1ccc(N2CCC3(CCOC3)CC2)cc1 [Example 67] | 0.038 µM |  | 
0.06 µM | 85 fold | CC1(n2c(-c3ccc(NC(=O)C(=O)Nc4ccc(N5CCC6(CCOC6)CC5)cc4)cc3)cc3cc(F)c(-c4nnn[nH]4)cc32)CCC1 [Example 68] | 0.06 µM | 0.031 µM | 100 fold
4.25 µM |  | CC1(n2c(-c3ccc(NC(=O)C(=O)Nc4ccc(N5CCC6(CCOC6)CC5)cc4)cc3)cc3cc(F)c(-c4nnn[nH]4)cc32)CC1 [Example 70] | 0.213 µM |  | 
0.173 µM |  | O=C(Nc1ccc(-c2cc3cc(F)c(-c4nnn[nH]4)cc3n2C2CCC2)cc1)C(=O)Nc1ccc(N2CCC3(CCOCC3)CC2)cc1 [Example 76] | 0.041 µM |  | 
0.094 µM |  | CC1(n2c(-c3ccc(NC(=O)C(=O)Nc4ccc(N5CCC6(CCOCC6)CC5)cc4)cc3)cc3cc(F)c(-c4nnn[nH]4)cc32)CCC1 [Example 77] | 0.034 µM |  | 
0.095 µM |  | O=C(Nc1ccc(-c2cc3cc(F)c(-c4nnn[nH]4)cc3n2C2CCC2)cc1)C(=O)Nc1ccc(N2CCC3(CC(O)C3)C2)cc1 (stereo not drawn) [Example 89] | 0.036 µM |  | 
0.123 µM |  | O=C(Nc1ccc(-c2cc3cc(F)c(-c4nnn[nH]4)cc3n2C2CCC2)cc1)C(=O)Nc1ccc(N2CCC3(CCC(O)C3)C2)cc1 (stereo not drawn) [Example 92] | 0.098 µM |  | 
0.237 µM |  | CC1(O)CC2(CCN(c3ccc(NC(=O)C(=O)Nc4ccc(-c5cc6cc(F)c(-c7nnn[nH]7)cc6n5C5CCC5)cc4)cc3)CC2)C1 [Example 94] | 0.041 µM |  | 
> 10 µM |  | O=C(Nc1ccc(-c2cc3cc(F)c(-c4nnn[nH]4)cc3n2C2CCC2)cc1)C(=O)Nc1ccc(N2CCC3(CC2)CC(CO)C3)cc1 [Example 96] | 0.103 µM |  | 
0.305 µM |  | CC1(n2c(-c3ccc(NC(=O)C(=O)Nc4ccc(N5CCC6(CC5)CC(CO)C6)cc4)cc3)cc3cc(F)c(-c4nnn[nH]4)cc32)CCC1 [Example 97] | 0.11 µM |  | 
0.126 µM |  | O=C(Nc1ccc(-c2cc3cc(F)c(-c4nnn[nH]4)cc3n2C2CCC2)cc1)C(=O)Nc1ccc(N2CCC3(CCC(O)C3)CC2)cc1 (stereo not drawn) [Example 100] | 0.038 µM |  | 
0.115 µM |  | O=C(Nc1ccc(-c2cc3cc(F)c(-c4nnn[nH]4)cc3n2C2CCC2)cc1)C(=O)Nc1ccc(N2CCC3(CCC(O)CC3)CC2)cc1 [Example 108] | 0.034 µM |  | 
0.133 µM |  | CC1(O)CCC2(CCN(c3ccc(NC(=O)C(=O)Nc4ccc(-c5cc6cc(F)c(-c7nnn[nH]7)cc6n5C5CCC5)cc4)cc3)CC2)CC1 [Example 110] | 0.086 µM |  | 
0.156 µM |  | O=C(Nc1ccc(-c2cc3cc(F)c(-c4nnn[nH]4)cc3n2C2CCC2)cc1)C(=O)Nc1ccc(N2CC3COCC3C2)cc1 (stereo not drawn) [Example 114] | 0.078 µM |  | 
0.263 µM |  | O=C(Nc1ccc(-c2cc3cc(F)c(-c4nnn[nH]4)cc3n2C2CCC2)cc1)C(=O)Nc1ccc(N2CC3CC(O)CC3C2)cc1 (stereo not drawn) [Example 116] | 0.067 µM |  | 
